Test results from patent publication US8796289B2 (AbbVie Inc., priority 2011, dated 2014).

target: GST-tagged-Wee1 kinase (Homo sapiens, UniProt P30291); assay: Wee1 time-resolved fluorescence equilibrium binding assay (displacement of Oregon Green-labeled ATP-competitive kinase probe)
Experimental: Wee1 kinase was assayed using a time-resolved fluorescence equilibrium binding assay monitoring displacement of a rapidly reversible Oregon Green-labeled ATP-competitive kinase probe (N-(2-(2-(2-(4-(4-(5-chloro-4-(2-(1-hydroxycyclobutyl)thiazol-5-yl)-1H-pyrrolo[2,3-b]pyridin-2-yl)phenyl)piperazin-1-yl)ethoxy)ethoxy)ethyl)-2′,7′-difluoro-3′,6′-dihydroxy-3-oxo-3H-spiro[isobenzofuran-1,9′-xanthene]-5-carboxamide) by competitive Wee1 inhibitors.

Sequence of GST-tagged-Wee1 kinase (P30291 whole entry): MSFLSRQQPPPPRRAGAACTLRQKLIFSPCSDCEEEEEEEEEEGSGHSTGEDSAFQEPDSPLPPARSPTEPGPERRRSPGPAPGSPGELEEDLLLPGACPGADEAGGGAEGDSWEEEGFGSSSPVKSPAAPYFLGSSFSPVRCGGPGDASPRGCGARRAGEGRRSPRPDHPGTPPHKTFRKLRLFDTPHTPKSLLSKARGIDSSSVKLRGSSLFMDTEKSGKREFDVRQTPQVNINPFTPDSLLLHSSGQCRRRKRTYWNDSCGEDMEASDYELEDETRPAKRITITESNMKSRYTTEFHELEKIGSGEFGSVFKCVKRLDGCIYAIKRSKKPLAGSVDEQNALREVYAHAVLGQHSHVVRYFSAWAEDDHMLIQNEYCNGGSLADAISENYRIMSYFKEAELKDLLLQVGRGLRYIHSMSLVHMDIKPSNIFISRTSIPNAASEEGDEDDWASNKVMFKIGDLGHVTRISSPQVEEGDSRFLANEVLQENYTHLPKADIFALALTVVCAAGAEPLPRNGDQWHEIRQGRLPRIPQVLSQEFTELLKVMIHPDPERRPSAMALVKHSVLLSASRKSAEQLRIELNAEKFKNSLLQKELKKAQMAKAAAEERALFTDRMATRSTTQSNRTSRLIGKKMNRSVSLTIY

| Ki | SMILES |
| --- | --- |
| 2.4 nM | Cc1nn(-c2c(Cl)cccc2Cl)c(=O)c2cnc(Nc3cccc(C(=O)N4CCN(C)CC4)c3)nc12 [Example 528, 6-(2,6-dichlorophenyl)-8-methyl-2-({3-[(4-methylpiperazin-1-yl)carbonyl]phenyl}amino)pyrimido[4,5-d]pyridazin-5(6H)-one] |
| 9.4 nM | Cc1nn(-c2c(Cl)cccc2Cl)c(=O)c2cnc(Nc3cccc(C(=O)N4CCS(=O)(=O)CC4)c3)nc12 [Example 529, 6-(2,6-dichlorophenyl)-2-({3-[(1,1-dioxidothiomorpholin-4-yl)carbonyl]phenyl}amino)-8-methylpyrimido[4,5-d]pyridazin-5(6H)-one] |
| 0.3 nM | Cc1nn(-c2c(Cl)cccc2Cl)c(=O)c2cnc(Nc3cccc(C(=O)NC4CCNCC4)c3)nc12 [Example 530, 3-{[6-(2,6-dichlorophenyl)-8-methyl-5-oxo-5,6-dihydropyrimido[4,5-d]pyridazin-2-yl]amino}-N-(piperidin-4-yl)benzamide] |
